The test system of data set [1] is mobilized peripheral blood CD34+ cells. The data set can be described thus: CD34+ hematopoietic stem/progenitor cell expansion (CD34+ frequency and number), Example 9. The conditions noted are these: dose response beginning at 10 pM, day 7, flow cytometry. It counts as cell-based. On the procedure: To determine the activity of a scale-up batch of Compound (24), individual enantiomers, and two derivatives Compound (27) and Compound (28) were evaluated for i) the ability to expand CD34+ hematopoietic stem/progenitor cells and ii) AHR antagonist activity. The compounds were compared to control AHR antagonist SR1, an additional control AHR antagonist, and stored sample of Compound (24) CD34+ Frequency and Number
Methods—mobilized peripheral blood CD34+ cells were cultured in the presence of compound, in dose response beginning at 10 pM. CD34+ cell frequency and number was assessed at day 7 by flow cytometry. All synthesized compounds show equivalent expansion capabilities if not greater than SR1.

The target in data set [2] is T1, AHR (Homo sapiens, UniProt P35869).
T1 construct: HepG2 cells transiently transfected with the pGudLuc6.1 plasmid were thawed and 25,000 cells were plated per well; endogenous in cells; host or cells: HepG2
T1 sequence (P35869 11-848): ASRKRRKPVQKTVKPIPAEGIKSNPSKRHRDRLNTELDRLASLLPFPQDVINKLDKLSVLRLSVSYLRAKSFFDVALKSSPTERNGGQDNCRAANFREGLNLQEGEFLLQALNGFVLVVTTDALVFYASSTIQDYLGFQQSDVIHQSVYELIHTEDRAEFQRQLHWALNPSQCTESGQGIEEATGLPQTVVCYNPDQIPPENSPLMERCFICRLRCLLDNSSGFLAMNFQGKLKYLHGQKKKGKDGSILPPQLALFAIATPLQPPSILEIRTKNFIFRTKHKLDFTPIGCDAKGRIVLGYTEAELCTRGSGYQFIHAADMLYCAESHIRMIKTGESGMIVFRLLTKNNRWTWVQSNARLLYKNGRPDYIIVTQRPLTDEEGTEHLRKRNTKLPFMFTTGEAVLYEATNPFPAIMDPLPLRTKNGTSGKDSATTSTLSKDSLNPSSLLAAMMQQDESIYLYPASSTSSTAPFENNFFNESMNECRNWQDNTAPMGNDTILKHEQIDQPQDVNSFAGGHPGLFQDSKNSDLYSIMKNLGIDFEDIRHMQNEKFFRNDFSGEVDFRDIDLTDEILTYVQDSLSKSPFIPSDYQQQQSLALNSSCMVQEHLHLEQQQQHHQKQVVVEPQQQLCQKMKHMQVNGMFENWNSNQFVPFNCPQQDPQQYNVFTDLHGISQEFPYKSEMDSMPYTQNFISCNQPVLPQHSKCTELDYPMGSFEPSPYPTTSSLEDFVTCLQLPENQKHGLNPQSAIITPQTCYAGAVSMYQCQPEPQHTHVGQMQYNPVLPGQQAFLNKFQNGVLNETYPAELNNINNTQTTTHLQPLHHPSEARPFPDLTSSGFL
The data set can be described thus: AHR antagonist assay, HepG2 cells transiently transfected with pGudLuc6.1 luciferase plasmid, Example 9. The format is cell-based. The conditions noted are these: luciferase activity 24 hours post-culture. As to the method: Methods—HepG2 cells transiently transfected with the pGudLuc6.1 plasmid were thawed and 25,000 cells were plated per well and immediately treated the AHR agonist VAF347 (fixed at 40 nM) and/or the indicated AHR antagonists. Luciferase activity was measured 24 hours post-culture, corresponding to endogenous AHR antagonist activity (without VAF347, FIG. 14) or in the presence of VAF347 (FIG. 15). All synthesized compounds show equivalent AHR antagonist activity if not greater than SR1.

The target in data set [3] is T2, aryl hydrocarbon receptor (Homo sapiens, UniProt P35869).
T2 construct: HepG2 cells transiently transfected with the pGudLuc6.1 plasmid were thawed and 25,000 cells were plated per well; endogenous in cells; host or cells: HepG2
T2 sequence (P35869 11-848): T1 sequence (P35869 11-848)
The data set can be described thus: Aryl hydrocarbon receptor-driven luciferase reporter in transiently transfected HepG2 cells, Example 3. The conditions noted are these: absence or presence of VAF347 (80 nM); six hours after plating. It counts as cell-based. As to the method: To determine the ability of compounds (5) and (16) to inhibit the activity of the aryl hydrocarbon receptor and to induce the proliferation of hematopoietic stem cells, a series of HSC expansion experiments were conducted. In the first experiment, compounds (5) and (16) were assessed for their capacity to attenuate aryl hydrocarbon receptor signaling. To this end, HepG2 hepatocytes were transiently transfected with a luciferase reporter construct under the control of a promoter responsive to aryl hydrocarbon receptor signal transduction. The cells were plated at a density of 25,000 cells per well in a microtiter plate. The HepG2 cells were immediately treated with compound (5) or (16) in the absence (FIG. 1) or presence (FIG. 2) of the aryl hydrocarbon receptor agonist, VAF347 (80 nM). Luciferase activity was subsequently analyzed six hours after plating.

Data set [4] concerns mononuclear peripheral blood cells enriched in CD34+ cells. The data set can be described thus: Proliferation of hematopoietic stem cells, percentage of CD34+ cells after seven days, Example 3. The format is cell-based. The conditions noted are these: for potency of hematopoietic stem cell expansion compared with SR1: compared with potency reported for SR1; for hematopoietic stem cell growth (percentage of CD34+ cells): seven days following plating. On the procedure: To assess the ability of compounds (5) and (16) to induce the proliferation of hematopoietic stem cells, a population of mononuclear peripheral blood cells enriched in CD34+ cells were plated at a density of 2,350 cells per well (50 μL) in a microtiter plate in the presence of each compound. The percentage of CD34+ hematopoietic stem cells was assessed seven days following the initial plating. […] The compounds of formula (I) and (II) described herein can thus be used to expand hematopoietic stem cells ex vivo in order to obtain sufficient quantities of such cells for in vivo applications.

In data set [5] the test system is NSG mice. The data set can be described thus: Transplantation into NSG mice of human hematopoietic stem cells expanded ex vivo with AHR antagonist; blood chimerism and brain microglia engraftment, Example 5. The format is in vivo. The conditions noted are these: NSG mice transplanted with cord blood CD34+ cells expanded 10 days with 500 nM AHR antagonist. As to the method: To investigate the ability of hematopoietic stem cells to differentiate into microglial cells and subsequently engraft in central nervous system tissue, such as the brain of a hematopoietic stem cell transplant recipient, a series of experiments were conducted in which human hematopoietic stem cells were first expanded ex vivo in the presence of an aryl hydrocarbon receptor antagonist (compound (16) or compound (24)) and were subsequently transplanted into NSG mice, in accordance with the scheme shown in FIG. 4. The frequency of human CD45+ cells in the peripheral blood of the mice was then determined, as well as the profile of microglial cells in the brain tissue using flow cytometry and immunohistochemistry techniques. […]
At the time of thaw, an equal number of cells to the starting cell cultures were injected into NSG mice, sublethally irradiated (200 cGy) 24 hours prior to injection. […] Peripheral blood was harvested by retro-orbital bleeding at approximately weeks 4 and 8 or by cardiac puncture at week 12 and chimerism was assessed by flow cytometry using antibodies against hCD45, mCD45, hCD33, hCD19, hCD3 and a viability dye. […]
Embedded brains were sectioned at approximately 5 microns and stained with Ku80 (brown) and Iba-1 (red) primary antibodies). Mouse brains were analyzed from each transplanted mouse and five levels were analyzed each. […]

[6] abbreviates: VAF347 fixed at 40 nM, read-out: AHR Antagonist Activity in the Presence of VAF347 EC50.
Setting [7] is: without VAF347, read-out: Endogenous AHR Antagonist Activity EC50.

Values joined by “and” are separate entries in the source; they are usually repeats but may differ in a detail not shown here. Equal entries are not always repeated. Where two headings read alike, the source gives them in different places.

By EC50 is commonly meant the concentration needed to bring the measured effect to its halfway point. As for `COCCC(C)c1cnc2c(NCCc3c[nH]c4ccccc34)nc(-c3cncc(F)c3)cn12` (racemic) [Compound (24), 6-(5-fluoropyridin-3-yl)-N-[2-(1H-indol-3-yl)ethyl]-3-(3-methoxy-1-methylpropyl)imidazo[1,2-a]pyrazin-8-amine], the EC50 in data set [1] (168 h) is 7 nM; in data set [2] (setting [6]), 13 nM and 11 nM; in data set [2] (setting [7]), 1 nM.

In the case of `COCCC(C)c1cnc2c(NCCc3c[nH]c4ccccc34)nc(-c3cncc(F)c3)cn12` (single isomer, unassigned) [Compound (24) - Enantiomer Peak 1, 6-(5-fluoropyridin-3-yl)-N-[2-(1H-indol-3-yl)ethyl]-3-(3-methoxy-1-methylpropyl)imidazo[1,2-a]pyrazin-8-amine], the concentration giving a half-maximal response (EC50) amounted to 11 nM in data set [1], 12 nM in data set [2] (setting [6]) and 1 nM in data set [2] (setting [7]).

Consider `COCCC(C)c1cnc2c(NCCc3c[nH]c4ccccc34)nc(-c3cncc(F)c3)cn12` (single isomer, unassigned) [Compound (24) - Enantiomer Peak 2, 6-(5-fluoropyridin-3-yl)-N-[2-(1H-indol-3-yl)ethyl]-3-(3-methoxy-1-methylpropyl)imidazo[1,2-a]pyrazin-8-amine], for which the concentration giving a half-maximal response (EC50) in data set [1] was found to be 4 nM; in data set [2] (setting [6]), 6 nM; in data set [2] (setting [7]), 0.4 nM.

`CCC(C)c1cnc2c(NCCc3c[nH]c4ccccc34)cc(-c3cncc(F)c3)cn12` (centres unmarked) [Compound (5)]: in data set [3], the “suppression of aryl hydrocarbon receptor activity (luciferase)” value is reported as “capable of suppressing aryl hydrocarbon receptor activity even in the presence of the activator VAF347”. Also, in data set [4], the “potency of hematopoietic stem cell expansion compared with SR1” value is reported as “potency greater than that reported for StemRegeninl (SR1)” and the “hematopoietic stem cell growth (percentage of CD34+ cells)” value was “capable of potentiating hematopoietic stem cell growth in a dose-dependent manner”.

As for `CCC(C)c1cnc2c(NCCc3c[nH]c4ccccc34)nc(-c3cncc(F)c3)cn12` (centres unmarked) [Compound (16)], the “suppression of aryl hydrocarbon receptor activity (luciferase)” value in data set [3] was “capable of suppressing aryl hydrocarbon receptor activity even in the presence of the activator VAF347”. Moreover, in data set [4], the “potency of hematopoietic stem cell expansion compared with SR1” value is “potency greater than that reported for StemRegeninl (SR1)” and the “hematopoietic stem cell growth (percentage of CD34+ cells)” value is “capable of potentiating hematopoietic stem cell growth in a dose-dependent manner”. The “frequency of hCD45+ cells in peripheral blood” value in data set [5] is “increased frequency of hCD45+ cells in peripheral blood”. Moreover, the “engraftment of hCD45+CD11b+ microglial cells in the brain” value in data set [5] (brains at 3 months) is reported as “increased engraftment of hCD45+CD11b+ microglial cells in the brain”.

As for `COCCCC(C)c1cnc2c(NCCc3c[nH]c4ccccc34)nc(-c3cncc(F)c3)cn12` (centres unmarked) [Compound (27), 6-(5-fluoropyridin-3-yl)-N-[2-(1H-indol-3-yl)ethyl]-3-(4-methoxy-1-methylbutyl)imidazo[1,2-a]pyrazin-8-amine], the concentration for a half-maximal effect (EC50) in data set [1] (168 h) stood at 8 nM; in data set [2] (setting [6]), 9 nM; in data set [2] (setting [7]), 2 nM.

Regarding `CCOCCC(C)c1cnc2c(NCCc3c[nH]c4ccccc34)nc(-c3cncc(F)c3)cn12` (centres unmarked) [Compound (28), 3-(3-ethoxy-1-methylpropyl)-6-(5-fluoropyridin-3-yl)-N-[2-(1H-indol-3-yl)ethyl]imidazo[1,2-a]pyrazin-8-amine], the concentration giving a half-maximal response (EC50) is 10 nM in data set [1] (168 h), 30 nM in data set [2] (setting [6]) and 2 nM in data set [2] (setting [7]).

As for `CC(C)n1cnc2c(NCCc3ccc(O)cc3)nc(-c3csc4ccccc34)nc21` [SR1, reference compound], the concentration for a half-maximal effect (EC50) in data set [1] is 112 nM; in data set [2] (setting [6]), 193 nM; in data set [2] (setting [7]) it was 33 nM.

The values above are taken from patent US10351572B2, “Aryl hydrocarbon receptor antagonists and uses thereof” (Magenta Therapeutics Inc., priority 2017, dated 2019).
